# Measured values from patent US20230257419A1, “PHARMACEUTICAL COMPOSITION FOR PREVENTING OR TREATING A PERIODONTAL DISEASE OR DISLOCATED TRAUMATIC TOOTH” (HYSENSBIO, priority 2020, published 2023).
# Legend:
# [1] = system: BSP gene; experiment: BSP mRNA expression by real-time PCR in human periodontal ligament cells; assay type: cell-based; conditions: average of three experiments
# Method: (§1) Specifically, all experiments were performed with the consent of the patient after obtaining approval from the Hospital's Institutional Review Board, a periodontal ligament tissue attached to the root of a wisdom tooth was isolated and cut into double-sided pieces, placed in a 60 mm dish, and covered with a cover slip, and then cultured in Dulbecco's degenerated Eagle's Medium.
# (§2) Total RNA from human periodontal ligament cells was isolated using a TRIzol reagent. cDNA was synthesized using 2 μg of total RNA, 1 μl of reverse transcriptase, and 0.5 μg of oligo (dT). cDNA of synthesized human periodontal ligament cells was used for a real-time polymerase chain reaction using primers shown in Table 2 below. A real-time polymerase chain reaction was performed in ABI PRISM 7500 sequence detection system (Applied Biosystems) using SYBR GREEN PCR Master Mix (Takara, Japan). The real-time polymerase chain reaction was performed at 94° C., 1 min; 95° C., 15 sec-60° C., 34 sec was performed under the condition of repeating 40 cycles. Results were analyzed using a comparative cycle threshold (CT) method.
# [2] = system: CAP gene; experiment: CAP mRNA expression by real-time PCR in human periodontal ligament cells; assay type: cell-based; conditions: average of three experiments
# Method: as §1, §2
# [3] = system: periostin gene; experiment: Periostin mRNA expression by real-time PCR in human periodontal ligament cells; assay type: cell-based; conditions: average of three experiments
# Method: as §1, §2
# [4] = system: three-wall periodontal defect; experiment: Periodontium regeneration in periodontium damage animal model, histological evaluation; assay type: in vivo; conditions: beagle dog, collagen sponge containing 50 μg peptide, 3 months
# Method: Four beagle dogs (12-16 kg; […]) were anesthetized by inhalation of Geloran, intravenously injected with Zoletil (5 mg/kg) and Xylazine (0.2-0.5 mg/kg), and then treated with Lidocaine (Lidocaine 2% with 1:80,000 epinephrine). The 4th premolar tooth and the 2nd molar tooth were extracted from the mandible of the beagle dog, and then the dog waited for healing for 3 months. After 3 months of healing, three-wall periodontal defect was induced on distal and mesial surfaces of a 1st molar tooth. Then, a periodontal damage of 4×4×4 mm was formed with the buccal and distal bones remaining around the tooth root, the root alveolar bone is securely removed, tooth root planing was performed using a curette, and then an incisor groove was formed using a ½ round bur. Next, an experimental group was transplanted with a collagen sponge (a peptide solution obtained by dissolving a peptide in physiological saline at a concentration of 1 μg/μl was prepared, 50 μl of a peptide solution was added to the EP tube, and then was soaked for 5 minutes to prepare the collagen sponge) including a 50 μl of peptide (SEQ ID NO: 16 of group 2) prepared in Example 1 at a defect region, After the defect, only a negative control (NC) without any treatment and a collagen sponge (prepared by soaking a collagen sponge in 50 μl of physiological saline for 5 minutes) was placed on the inner bone wall of a bone defect and a transplanted negative control (NC+Plug) was sacrificed 3 months later, and histological evaluation was performed. After 3 months, a beagle dog was sacrificed by administering an excessive amount (90-120 mg/kg) of pentobarbital. A tooth of the beagle dog was extracted, fixed with 10% formalin, and then calcium was removed by adding 5% formic acid, molded, and embedded in paraffin, to obtain a tissue section with a thickness of 5 μm. The obtained tissue section was stained with hematoxylin and eosin or collagen stained (Masson's Trichrome Staining) to confirm periodontal ligament regeneration and then analyzed using by an optical microscope equipped with a digital camera (LEICA ICC50 camera, Germany). After extraction of a 4th premolar tooth and a 2nd molar tooth from the mandibles of 4 beagle dogs, they waited for 3 months to heal, and After 3 months of healing, the 3-mural periodontal defect was induced in distal and mesial surfaces of a 1st molar tooth. Then, periodontium damage of 4×4×4 mm was formed with the buccal and distal bones remaining around the tooth root, the root alveolar bone is securely removed, tooth root planing was performed using a curette, and then an incisor groove was formed. Next, the experimental group transplanted a collagen sponge containing 50 μg of the peptide (SEQ ID NO: 16) of Example 1 to the defect region, and after the defect, a negative control (NC) without any treatment and control (NC+Plug) transplanted by placing only a collagen sponge on the inner bone wall of the bone defect was sacrificed 3 months later for histological evaluation.
# [5] = Masson's trichrome stain, FIG. 6
substance,measurement,setting,value
1 (KYKQRKKNYK) [compound 1],"BSP gene expression, relative mRNA expression level compared to the control, Average",[1],2.092
same,"CAP gene expression, relative mRNA expression level compared to the control, Average",[2],2.092
same,"PERIOSTIN gene expression, relative mRNA expression level compared to the control, Average",[3],2.092
2 (KYKQRKRNYK) [compound 2],"BSP gene expression, relative mRNA expression level compared to the control, Average",[1],2.361
same,"CAP gene expression, relative mRNA expression level compared to the control, Average",[2],2.361
same,"PERIOSTIN gene expression, relative mRNA expression level compared to the control, Average",[3],2.361
3 (KYKQRRKNYK) [compound 3],"BSP gene expression, relative mRNA expression level compared to the control, Average",[1],2.572
same,"CAP gene expression, relative mRNA expression level compared to the control, Average",[2],2.572
same,"PERIOSTIN gene expression, relative mRNA expression level compared to the control, Average",[3],2.572
4 (KYKQRRRNYK) [compound 4],"BSP gene expression, relative mRNA expression level compared to the control, Average",[1],2.702
same,"CAP gene expression, relative mRNA expression level compared to the control, Average",[2],2.702
same,"PERIOSTIN gene expression, relative mRNA expression level compared to the control, Average",[3],2.702
5 (KYKQKKKNYK) [compound 5],"BSP gene expression, relative mRNA expression level compared to the control, Average",[1],2.67
same,"CAP gene expression, relative mRNA expression level compared to the control, Average",[2],2.67
same,"PERIOSTIN gene expression, relative mRNA expression level compared to the control, Average",[3],2.67
6 (KYKQKRKNYK) [compound 6],"BSP gene expression, relative mRNA expression level compared to the control, Average",[1],2.705
same,"CAP gene expression, relative mRNA expression level compared to the control, Average",[2],2.705
same,"PERIOSTIN gene expression, relative mRNA expression level compared to the control, Average",[3],2.705
7 (KYKQKKRNYK) [compound 7],"BSP gene expression, relative mRNA expression level compared to the control, Average",[1],2.215
same,"CAP gene expression, relative mRNA expression level compared to the control, Average",[2],2.451
same,"PERIOSTIN gene expression, relative mRNA expression level compared to the control, Average",[3],2.329
8 (KYKQKRRNYK) [compound 8],"BSP gene expression, relative mRNA expression level compared to the control, Average",[1],2.021
same,"CAP gene expression, relative mRNA expression level compared to the control, Average",[2],2.021
same,"PERIOSTIN gene expression, relative mRNA expression level compared to the control, Average",[3],2.021
9 (KYKQRKKSYK) [compound 9],"BSP gene expression, relative mRNA expression level compared to the control, Average",[1],2.211
same,"CAP gene expression, relative mRNA expression level compared to the control, Average",[2],2.211
same,"PERIOSTIN gene expression, relative mRNA expression level compared to the control, Average",[3],2.211
10 (KYKQRKRSYK) [compound 10],"BSP gene expression, relative mRNA expression level compared to the control, Average",[1],2.811
same,"CAP gene expression, relative mRNA expression level compared to the control, Average",[2],2.811
same,"PERIOSTIN gene expression, relative mRNA expression level compared to the control, Average",[3],2.811
11 (KYKQRRKSYK) [compound 11],"BSP gene expression, relative mRNA expression level compared to the control, Average",[1],2.362
same,"CAP gene expression, relative mRNA expression level compared to the control, Average",[2],2.362
same,"PERIOSTIN gene expression, relative mRNA expression level compared to the control, Average",[3],2.362
12 (KYKQRRRSYK) [compound 12],"BSP gene expression, relative mRNA expression level compared to the control, Average",[1],2.211
same,"CAP gene expression, relative mRNA expression level compared to the control, Average",[2],2.211
same,"PERIOSTIN gene expression, relative mRNA expression level compared to the control, Average",[3],2.211
13 (KYKQKKKSYK) [compound 13],"BSP gene expression, relative mRNA expression level compared to the control, Average",[1],2.525
same,"CAP gene expression, relative mRNA expression level compared to the control, Average",[2],2.525
same,"PERIOSTIN gene expression, relative mRNA expression level compared to the control, Average",[3],2.525
14 (KYKQKRKSYK) [compound 14],"BSP gene expression, relative mRNA expression level compared to the control, Average",[1],2.836
same,"CAP gene expression, relative mRNA expression level compared to the control, Average",[2],2.836
same,"PERIOSTIN gene expression, relative mRNA expression level compared to the control, Average",[3],2.836
15 (KYKQKKRSYK) [compound 15],"BSP gene expression, relative mRNA expression level compared to the control, Average",[1],2.620
same,"CAP gene expression, relative mRNA expression level compared to the control, Average",[2],2.620
same,"PERIOSTIN gene expression, relative mRNA expression level compared to the control, Average",[3],2.620
16 (KYKQKRRSYK) [compound 16],"BSP gene expression, relative mRNA expression level compared to the control, Average",[1],2.606
same,"CAP gene expression, relative mRNA expression level compared to the control, Average",[2],2.467
same,"PERIOSTIN gene expression, relative mRNA expression level compared to the control, Average",[3],2.403
"KYKQKRRSYK [SEQ ID NO: 16, Group 2 peptide, 8th amino acid is serine (S)]",incorporation of new periodontal ligament fiber bundle into alveolar bone and cementum,[4]; [5],A new periodontal ligament fiber bundle was vertically incorporated in the newly formed alveolar bone and cementum
same,new cementum-like tissue formation,[4]; [5],new cementum-like tissue was observed along a tooth root surface
same,new periodontal ligament-like tissue formation,[4]; [5],new periodontal ligament-like tissue formation was also observed
same,incorporation of new periodontal ligament into alveolar bone and cementum,"[4]; hematoxylin/eosin, FIG. 5",New periodontal ligament was incorporated in the newly formed alveolar bone and cementum
same,new cementum-like tissue formation,"[4]; hematoxylin/eosin, FIG. 5",new cementum-like tissue was observed along a tooth root surface
same,new periodontal ligament-like tissue formation,"[4]; hematoxylin/eosin, FIG. 5",new periodontal ligament-like tissue formation was also observed
